Among the data in PubChem BioAssay AID1645864 (Buhrlage Lab, Dana-Farber Cancer Institute and Novartis …, 2021) are IC50 values, retold here.

Structures are written as SMILES. Active and inactive are the calls of the source.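 The calls were made as follows: active = maximal inhibition of USP17 at or above 30% in the confirmation dose-response, a value not among the printed readouts; inactive = the rest.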

The target in the assay is Ubiquitin carboxyl-terminal hydrolase 17-like protein 5 (Homo sapiens) (UniProt A8MUK1). The assay is described as follows: ubiquitin-specific protease 17 inhibitors, concentration series, biochemical, verification of primary actives (AID 1645864). The note with it: purified USP17, ubiquitin-rhodamine cleavage fluorescence, 3 h.
Ubiquitin carboxyl-terminal hydrolase 17-like protein 5 (Homo sapiens), sequence (A8MUK1 whole entry, looked up): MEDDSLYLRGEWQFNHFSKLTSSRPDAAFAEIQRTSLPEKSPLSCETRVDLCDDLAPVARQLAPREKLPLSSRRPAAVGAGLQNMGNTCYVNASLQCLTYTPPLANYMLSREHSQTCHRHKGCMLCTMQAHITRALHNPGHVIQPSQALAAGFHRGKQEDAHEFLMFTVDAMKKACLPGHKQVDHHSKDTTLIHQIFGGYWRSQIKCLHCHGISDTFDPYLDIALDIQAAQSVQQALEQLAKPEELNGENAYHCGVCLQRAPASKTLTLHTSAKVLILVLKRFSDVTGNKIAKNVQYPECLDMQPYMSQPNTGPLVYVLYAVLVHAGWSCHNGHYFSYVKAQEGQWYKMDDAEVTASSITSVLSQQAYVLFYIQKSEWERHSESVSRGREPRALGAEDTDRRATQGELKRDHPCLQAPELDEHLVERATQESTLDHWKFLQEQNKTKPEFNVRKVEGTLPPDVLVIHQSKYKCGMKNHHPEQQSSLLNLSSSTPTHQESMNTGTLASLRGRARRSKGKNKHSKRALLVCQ
`O=C(CNS(=O)(=O)c1ccc(F)cc1)N1CCCC(c2nnc3ccccn23)C1` (stereo not given): the IC50 is > 50 µM (inactive).
Take `COc1ccc(C(=O)CSc2ccc3nnc(CCNC(=O)c4ccc(OC)cc4)n3n2)cc1`: the IC50 is > 50 µM (inactive).
In the case of `CS(=O)(=O)N1CCCN(c2nc3cc(Cl)ccc3n3cccc23)CC1`, the IC50 is > 50 µM (inactive).
For the molecule `O=C(NC1(O)C(=O)c2ccccc2C1=O)c1cccc2c1-c1ccccc1C2=O`, the IC50 was 11.2 µM.
For `O=C(Nc1ccc2c(c1)OCCO2)c1ccc(N2CCCCC2)nn1`, the IC50 was > 50 µM (inactive).
In the case of `CCN(C(=O)c1cc2c(Cl)nc3ccccc3c2s1)c1ccccc1F` it was 16.1 µM; in that of `Cc1ccc(C)c(Nc2cc(C)nc3nc(-c4ccco4)nn23)c1`, > 50 µM (inactive).
With `O=C(Cn1c(CSc2ccccc2)nc2ccccc21)Nc1ccccc1F`, the IC50 is 39.6 µM.
To `O=C(c1cccnc1)N1CCC2(CC1)CC1(CO2)Nc2ccccc2-n2cccc21` (stereo not given) belongs 21.4 µM.
In the case of `CCCCNC(=O)C1Sc2nnc(-c3ccccc3)n2NC1c1ccccc1` (stereo not given), the IC50 is 23.7 µM.
On to `O=C(NC(Cc1ccccc1)c1nc2ccccc2[nH]1)c1ccccn1` (stereo not given), for which the IC50 is > 50 µM (inactive).
Regarding `CC(Nc1ncnc2c1sc1nc(N3CCOCC3)c3c(c12)CCC3)c1ccccc1` (stereo not given), the IC50 is 5.33 µM.
Consider `Cc1cc(C(=O)N2CCOC3(CC=CCN(CCc4ccccc4)C3=O)C2)n2nccc2n1` (stereo not given), for which the IC50 was > 50 µM (inactive).
In the case of `CC1CCN(c2nnc(-c3nc(C4CC4)no3)c3ccccc23)CC1`, the IC50 was > 50 µM (inactive).
On to `Cc1cccc(NC(=O)Cn2c(-c3cnccn3)nc(C)c(C)c2=O)c1C`, for which the IC50 is > 50 µM (inactive).
In the case of `Nc1c(-c2ccc(Cl)cc2)cnc2cc(-c3ccc(Cl)c(Cl)c3)nn12` it was 3.37 µM.
In the case of `Cc1nc(-c2cccc(NC(=O)C3CCN(c4ccccc4)C3=O)c2)no1` (stereo not given) it was 37.2 µM.
As to `CC1(C)OC2=C(C(=O)c3cc(O)cc(O)c3C2=O)c2cc(CO)c(O)cc21`, the IC50 was 5.7 µM.
Take `COC(=O)c1sc2ccccc2c1NC(=O)c1ccc(Br)s1`: the IC50 is 20.6 µM.
To `COc1ccc(NC(=O)c2nnn(-c3ccccc3)c2C)cc1OC` belongs > 50 µM (inactive); to `CN(C)S(=O)(=O)N1CCCC2(C1)Nc1cccnc1NC2=NC1CCCC1` (stereo not given), > 50 µM (inactive); to `Cc1ccc(-c2noc(-c3nnc(SCC(=O)NC4CCCC4)n3C)n2)cc1`, 2.34 µM.
For `COc1ccc(-c2nonc2NC(=O)C(c2ccccc2)c2ccccc2)cc1OC`, the IC50 was > 50 µM (inactive).
In the case of `COC(=O)c1ccccc1NC(=O)CSc1nnc(CNc2ccc(F)cc2)n1CC1CCCO1` (stereo not given) it was > 50 µM (inactive); in that of `COc1ccccc1-c1nc2c3c(ncn2n1)Oc1c(c(C)nn1-c1ccccc1)C3c1cccnc1` (stereo not given), 5.68 µM.
For the molecule `Cc1ccc(NC(=O)Cn2c(Nc3cccc(C)c3)nc(C)cc2=O)cc1`, the half-maximal inhibitory concentration (IC50) was 42.1 µM.
Consider `CC(C)C(=O)Nc1ccc(N2CCN(Cc3ccc(F)cc3)C2=O)nc1`, for which the IC50 is 26.4 µM.
With `O=C(O)c1ccccc1C(=O)Nc1ccc(SC(C(=O)Nc2ccccc2)c2ccccc2)cc1` (stereo not given), the IC50 is > 50 µM (inactive).
In the case of `CC(C)Cc1nc2sc3c(NCc4ccccc4)ncnc3c2c2c1COC(C)(C)C2`, the IC50 was 6.77 µM.
For the molecule `CNC(=O)c1c2n(c3ncccc13)CCN(S(=O)(=O)c1ccc(-c3ccccc3)cc1)C2`, the IC50 is 15 µM.
Turning to `COc1ccc(C(=O)CSc2nnc(-c3cccnc3)n2-c2ccccc2)cc1`, the IC50 is > 50 µM (inactive).
To `COc1ccc(-n2nnc3c(SCC(=O)Nc4cc(C)on4)ncnc32)cc1` belongs > 50 µM (inactive); to `COc1cc(Cl)ccc1C(=O)Nc1cccc(-n2cnnn2)c1C`, 4.48 µM.
In the case of `CCOc1ccccc1-c1nc(-c2nnn(Cc3ccccc3)c2C)no1` it was > 50 µM (inactive); in that of `O=C1/C(=C/c2cn(-c3ccccc3)nc2-c2ccc3c(c2)OCCO3)Cc2ccccc21`, > 50 µM (inactive).

Usually IC50 stands for the concentration that gives 50% inhibition.
